Data set [1] is described as follows: Test for concentrations in blood, intrarectal administration. The arrangement: species or system Male rats. As to conditions: rat, in vivo. As to the method:
Male rats (body weight 250-350 g: n=3) which had been caused to fast for 18 hours prior to administration were anesthetized with pentobarbirtal. After the abdomen was incised, the upper part of the duodenum was tied. Each of the test compounds was dissolved in water so that its concentration became 12.5 mg/ml as its starting antibiotic (the compound of formula II), and the solution was intraduodenally administered to the rats in a dose of 2 ml/kg. After the administration, blood was drawn periodically from the tail vein, and the concentration of the starting antibiotic in the blood was measured by antimicrobial assay and liquid chromatography.
Male rats (body weight 250-350 g: n=3) which had been caused to fast for 18 hours prior to administration were anesthetized with pentobarbirtal. After the abdomen was incised, the lower part of the rectum was tied. Each of the test compounds was administered intrarectally in the same dose in the same manner as in (1) above, and the concentration of the starting antibiotic in the blood was measured in the same way as in (1) above.

The test system of data set [2] is Bacillus subtilis ATCC 6633. In words: Test for antibacterial activity (paper disk, diameter of inhibitory zone, before and after incubation in rat liver/kidney homogenate). In kind it is cell-based. As to conditions: 200 mcq/ml, 8 mm paper disk. On the procedure:
Each of the test compounds shown in the following table was dissolved in a concentration of 200 mcq/ml in a homogenate of a 10% physiological saline solution of an organ of a rat, and incubated at 37° C. for 2 hours. An enzymatic reaction was stopped by adding an equal amount of ethanol. The antibacterial activity of the test compound before incubation was compared with that after incubation. The incubation was carried out in an equal amount mixture of a liver homogenate and a kidney homogenate. The antibacterial activity was measured by a paper disk having a diameter of 8 mm using Bacillus subtilis ATCC 6633 as a test organism, and shown by the diameter of the resulting inhibitory zone.

Where [3] appears, read: ATCC6633, after incubation at 37° C. for 2 hours in rat liver homogenate and kidney homogenate, read-out: Diameter of the inhibitory zone, after incubation.
The mark [4] stands for this setting: ATCC6633, before incubation, read-out: Diameter of the inhibitory zone, before incubation.

The structures appear in SMILES notation. Where two headings read alike, the source gives them in different places.

`CC(N)C1CCC(N)C(OC2C(N)CC(O)C(N(C)C(=O)CNC(=O)[C@@H](N)CCC(=O)OCCCOC(=O)CC[C@@H](C)[C@H]3CC[C@H]4[C@@H]5CC[C@@H]6C[C@H](O)CC[C@]6(C)[C@H]5C[C@H](O)[C@]34C)C2O)O1` (stereo partly drawn) [Example 20, 2"-N-[γ-O-(3-deoxycholyloxypropyl)-L-glutamyl]-5-de-O-methyl-KA-6606I]: in data set [1], the “Maximum concentration in blood Cmax” value was 7760 ng/mL and the Tmax – broadly, the time from dosing to the highest level – turned out to be 30 min. The zone of inhibition at 200 µg/mL in data set [2] (setting [3]) was found to be 21.8 mm. For the same compound, in data set [2] (setting [4]), the zone of inhibition at 200 µg/mL was 14.1 mm.

With `CC(=O)OC1CCC2(C)C(CCC3C2CC(OC(C)=O)C2(C)C(C(C)CCC(=O)OCCCCOC(=O)CCC(N)C(=O)NCC(=O)N(C)C4C(O)CC(N)C(OC5OC(C(C)N)CCC5N)C4O)CCC32)C1` [Example 27, 2"-N-{γ-O-[4-(3,12-di-O-acetyldeoxycholyloxy)butyl]-L-glutamyl}-5-de-O-methyl-KA-6606I], the “Maximum concentration in blood Cmax” value in data set [1] is 5300 ng/mL. Moreover, the Tmax in data set [1] is 30 min. In addition, the zone of inhibition at 200 µg/mL was determined as 23.2 mm in data set [2] (setting [3]) and 13.5 mm in data set [2] (setting [4]).
